Laboratory results: patent US20250271442A1, “Methods for Detecting Renal Disease” (IDEXX Laboratories, Inc., priority 2013, published 2025)
Values after ≈ are worked out from the molar mass of the structure shown.

How the values were obtained:
Assay type in all cases: binding
[1] = tested on: rabbit anti-SDMA antibody in serum, Rabbit # 153 (SDMA-KLH immunogen); test: Competitive ELISA, specificity of rabbit anti-SDMA antiserum, Rabbit #153; conditions: Rabbit # 153 antiserum (1:2.5K); for % Cross Reactivity: IC50 of SDMA / IC50 of competitor x 100; for IC 50: competition with SDMA-HRP conjugate, absorbance 450 nm
Procedure: (§1) The immunization protocol for generating the anti-SDMA antibodies was carried out according to the following protocol. Six California breed rabbits were immunized with an SDMA-conjugate. Three of the six rabbits were immunized with SDMA conjugated with BSA (rabbits #155, 156 and 157) and the other three rabbits were immunized with SDMA conjugated with KLH (rabbits #152, 153 and 154) (prepared as described in Example 2). For primary immunizations, each rabbit was injected with 0.5 mg of the SDMA conjugate in 1 ml of phosphate buffered saline (PBS) mixed with 1 ml of Freund's complete adjuvant. Each rabbit received 20-30 intradermal injections on their shaved back. Each rabbit was boosted with 0.25 mg of immunogen in 1 ml PBS mixed with equal volume of Freund's incomplete adjuvant in the hind legs. The boosting shots were given each month after the primary injection. Test bleeds of 5 ml blood were taken from each rabbit 7-10 days after each boost. Production bleeds of 40 ml were taken from each rabbit after the third booster shot, when the antisera titer was greater than about 1:2000. Antiserum titer is the dilution of antiserum that generates the steepest calibration curve for the assay.
(§2) In order to assess the specificity of the antibodies obtained by the procedures described in Example 3 above, their reactivity to SDMA, ADMA, L-arginine, and/or N-methylarginine was measured in a competitive ELISA assay (Table 1).
(§3) ADMA-2HCl, SDMA-2HCl, N-methylarginine acetate (Sigma, Cat. No. M7033) or L-arginine (Sigma, Cat. No. A5006) were each dissolved in PBS to make stock solutions at 1 mg/ml. From these stock solutions, working solutions at 100 μg/ml, 10 μg/ml and 1 μg/ml were prepared in PBS.
(§4) […] After a 30 minutes incubation period at room temperature, the wells were washed 4 times with PBST (Phosphate Buffered Saline, 0.05% Tween).
(§5) 100 μl of 3,3′,5,5′-Tetramethylbenzidine (commercially available from Promega Corporation of Madison, WI) was subsequently added. Following a 30 minutes incubation period at room temperature, 100 μl of stop solution (1 N HCl) was added and the absorbance was measured at 450 nm using a BioTek ELX 808 (Winooski, VT) plate reader. The data was subjected to quantification using Softmax software (Molecular Devices, Sunnyvale, CA).
(§6) The absorbance values obtained with 0 μg/mL, 1 μg/mL, 10 μg/mL, and 100 μg/mL of ADMA, SDMA, N-methylarginine or L-arginine, respectively, were determined and plotted. The concentration of SDMA at which the absorbance value was reduced by 50% (relative to the maximum absorbance obtained at 0 μg/mL SDMA; i.e. IC50) was divided by each of the concentrations of ADMA, N-methylarginine or L-arginine, respectively, at which the absorbance value was reduced by 50% (IC50). The resulting value was multiplied by 100 to obtain the value “% cross-reactivity”.

[2] = tested on: rabbit anti-SDMA antibody in serum, Rabbit # 157 (SDMA-BSA immunogen); test: Competitive ELISA, specificity of rabbit anti-SDMA antiserum, Rabbit #157; conditions: Rabbit # 157 antiserum (1:15K); for % Cross Reactivity: IC50 of SDMA / IC50 of competitor x 100; for IC 50: competition with SDMA-HRP conjugate, absorbance 450 nm
Procedure: as §1, §2, §3, §4, §5, §6

[3] = tested on: rabbit anti-SDMA antibody in serum, Rabbit # 152 (SDMA-KLH immunogen); test: Competitive ELISA, specificity of rabbit anti-SDMA antiserum, Rabbit #152; conditions: Rabbit # 152 antiserum (1:5K); for % Cross Reactivity: IC50 of SDMA / IC50 of competitor x 100; for IC 50: competition with SDMA-HRP conjugate, absorbance 450 nm
Procedure: as §1, §2, §3, §4, §5, §6

[4] = tested on: rabbit anti-SDMA antibody in serum, Rabbit # 155 (SDMA-BSA immunogen); test: Competitive ELISA, specificity of rabbit anti-SDMA antiserum, Rabbit #155; conditions: Rabbit # 155 antiserum (1:3K); for % Cross Reactivity: IC50 of SDMA / IC50 of competitor x 100; for IC 50: competition with SDMA-HRP conjugate, absorbance 450 nm
Procedure: as §1, §2, §3
(§7) 50 μl of the SDMA-HRP conjugate (as described in Example 5 below), 50 μl of ADMA, SDMA, N-methylarginine or L-arginine (at concentrations from 1-100 μg/ml as described above), and 50 μl of rabbit anti-SDMA antibody in serum (1:3000 titer) were sequentially added to an individual well in a 96-well polystyrene microwell plate, precoated with sheep anti-rabbit IgG (commercially available from Beacon Analytical Systems Inc. of Portland, ME). After a 30 minutes incubation period at room temperature, the wells were washed 4 times with PBST (Phosphate Buffered Saline, 0.05% Tween).
as §5, §6

[5] = tested on: rabbit anti-SDMA antibody in serum, Rabbit # 156 (SDMA-BSA immunogen); test: Competitive ELISA, specificity of rabbit anti-SDMA antiserum, Rabbit #156; conditions: Rabbit # 156 antiserum (1:20K); for % Cross Reactivity: IC50 of SDMA / IC50 of competitor x 100; for IC 50: competition with SDMA-HRP conjugate, absorbance 450 nm
Procedure: as §1, §2, §3, §4, §5, §6

[6] = tested on: rabbit anti-SDMA antibody in serum, Rabbit # 154 (SDMA-KLH immunogen); test: Competitive ELISA, specificity of rabbit anti-SDMA antiserum, Rabbit #154; conditions: Rabbit # 154 antiserum (1.25K); for % Cross Reactivity: IC50 of SDMA / IC50 of competitor x 100; for IC 50: competition with SDMA-HRP conjugate, absorbance 450 nm
Procedure: as §1, §2, §3, §4, §5, §6

[7] = tested on: polyclonal antibody from Rabbit No. 154 (anti-SDMA); test: Competitive ELISA, specificity with greater stringency, polyclonal antibody from Rabbit No. 154; conditions: polyclonal antibody from Rabbit No. 154, determined with greater stringency
Procedure: as §7, §5, §6
In another experiment, using only polyclonal antibody from Rabbit No. 154, the specificity of the antibody was determined with greater stringency by the method described above.

Row | Structure (SMILES) | % Cross Reactivity [1] [%] | IC 50 [1] [µg/mL] | % Cross Reactivity [2] [%] | IC 50 [2] [µg/mL] | % Cross Reactivity [3] [%] | IC 50 [3] [µg/mL] | % Cross Reactivity [4] [%] | IC 50 [4] [µg/mL] | % Cross Reactivity [5] [%] | IC 50 [5] [µg/mL] | % Cross Reactivity [6] [%] | IC 50 [6] [µg/mL] | Specificity (Cross-Reactivity) Rabbit No. 154 Cross-reactivity [7] [%]
1 | CN(C)C(=N)NCCCC(N)C(=O)O (stereo not drawn) [ADMA, asymmetrical dimethylarginine] | <1 | >100 | <1 | >100 | <1 | >100 | <1 | >100 | <1 | >100 | <1 | >100 | <0.2
2 | N=C(N)NCCC[C@H](N)C(=O)O [L-Arginine, L-arginine] | <1 | >100 | <1 | >100 | <1 | >100 | <1 | >100 | <1 | >100 | <1 | >100 | <0.01
3 | CNC(=N)NCCCC(N)C(=O)O (stereo not drawn) [N-MMA, N-monomethylarginine] | <1 | >100 | <1 | >100 | <1 | >100 | <1 | 79 (≈ 420 µM) | <1 | >100 | <1 | >100 | 
4 | C/N=C(\NC)NCCCC(N)C(=O)O (stereo not drawn) [SDMA, symmetrical dimethylarginine] | 100 | 0.65 (≈ 3.21 µM) | 100 | 1.6 (≈ 7.91 µM) | 100 | 1.10 (≈ 5.44 µM) | 100 | 0.73 (≈ 3.61 µM) | 100 | 1.3 (≈ 6.43 µM) | 100 | 0.49 (≈ 2.42 µM) | 100
